Measurements published in patent US20100130597A1, “DNA-PKCS MODULATES ENERGY REGULATION AND BRAIN FUNCTION” (The United State of America, as represented by the …, priority 2007, published 2010).

Experiments:
leukemic cells = details: Willmore et al. Blood 103:4659, 2004; cited from earlier work
[1] = test system: mouse embryonic fibroblasts and Chinese hamster ovary cells; details: Veuger et al 2003; Griffin et al. 2005; cited from earlier work
MCF7 cells [2] = assay: ATP level in MCF7 cells; type: cell-based; details: 1 and 2.5 μM, FIG. 20
Description: The level of ATP and the ADP/ATP ratio in cells were determined using an
ENLITEN ATP assay kit (Promega) and ApoGlow assay kit (Cambrex), respectively. […] To determine whether the AMPK-inhibitory function of DNA-PKcs is cell autonomous, quiescent MCF7 cells were treated with 1 and 2.5 μM NU7026.

Forced swim test (FST) = type: in vivo, mice; details: data not shown
Description: (§1) Elevated plus maze tests, light/dark chamber tests, forced swim tests (FST) and hot plate tests were performed as described earlier.

AMPK = AMPK activation in C2C12 cells; type: cell-based
Description: Expression of PGC-1α (FIGS. 12-14 and 49) can be induced by multiple proteins, including the energy sensor AMPK and the longevity protein Sirt1. Nutrient deprivation stimulates AMPK activity due to increasing AMP/ATP ratios. AMPK is activated by LKB1 kinase. Alternately, AMPK is also activated by a Ca^2+/calmodulin-dependent protein kinase (CaMK) without AMP. In order to test which upstream kinase plays a major role for AMPK activation after DNA-PKcs inhibition, C2C12 cells were treated with NU7026 in the presence or absence of a known CaMK chemical inhibitor ST0609. […] This raised the possibility that DNA-PKcs suppresses LKB1 and subsequently AMPK.

LKB1 = LKB1 activation (LKB1 phosphorylation) in C2C12 cells; type: cell-based; details: NU7026 2.5 μM, Resveratrol 50 μM, FIG. 51A
Description: Cells were treated with DNA-PKcs inhibitors to ascertain whether DNA-PKcs suppresses LKB1 activity in vitro.

PGC-1α = PGC-1α expression in AMPK α1/α2-null MEFs; type: cell-based, mouse; details: FIG. 53
Description: AMPK is a heterotrimer kinase composed of a catalytic α subunit, and the β and γ regulatory subunits. There are two isoforms (α1 and α2) of the catalytic α subunit.

ATM = ATM (Homo sapiens, UniProt Q13315); details: related kinase, selectivity; cited from earlier work
ATM, sequence (Q13315 whole entry, species assumed): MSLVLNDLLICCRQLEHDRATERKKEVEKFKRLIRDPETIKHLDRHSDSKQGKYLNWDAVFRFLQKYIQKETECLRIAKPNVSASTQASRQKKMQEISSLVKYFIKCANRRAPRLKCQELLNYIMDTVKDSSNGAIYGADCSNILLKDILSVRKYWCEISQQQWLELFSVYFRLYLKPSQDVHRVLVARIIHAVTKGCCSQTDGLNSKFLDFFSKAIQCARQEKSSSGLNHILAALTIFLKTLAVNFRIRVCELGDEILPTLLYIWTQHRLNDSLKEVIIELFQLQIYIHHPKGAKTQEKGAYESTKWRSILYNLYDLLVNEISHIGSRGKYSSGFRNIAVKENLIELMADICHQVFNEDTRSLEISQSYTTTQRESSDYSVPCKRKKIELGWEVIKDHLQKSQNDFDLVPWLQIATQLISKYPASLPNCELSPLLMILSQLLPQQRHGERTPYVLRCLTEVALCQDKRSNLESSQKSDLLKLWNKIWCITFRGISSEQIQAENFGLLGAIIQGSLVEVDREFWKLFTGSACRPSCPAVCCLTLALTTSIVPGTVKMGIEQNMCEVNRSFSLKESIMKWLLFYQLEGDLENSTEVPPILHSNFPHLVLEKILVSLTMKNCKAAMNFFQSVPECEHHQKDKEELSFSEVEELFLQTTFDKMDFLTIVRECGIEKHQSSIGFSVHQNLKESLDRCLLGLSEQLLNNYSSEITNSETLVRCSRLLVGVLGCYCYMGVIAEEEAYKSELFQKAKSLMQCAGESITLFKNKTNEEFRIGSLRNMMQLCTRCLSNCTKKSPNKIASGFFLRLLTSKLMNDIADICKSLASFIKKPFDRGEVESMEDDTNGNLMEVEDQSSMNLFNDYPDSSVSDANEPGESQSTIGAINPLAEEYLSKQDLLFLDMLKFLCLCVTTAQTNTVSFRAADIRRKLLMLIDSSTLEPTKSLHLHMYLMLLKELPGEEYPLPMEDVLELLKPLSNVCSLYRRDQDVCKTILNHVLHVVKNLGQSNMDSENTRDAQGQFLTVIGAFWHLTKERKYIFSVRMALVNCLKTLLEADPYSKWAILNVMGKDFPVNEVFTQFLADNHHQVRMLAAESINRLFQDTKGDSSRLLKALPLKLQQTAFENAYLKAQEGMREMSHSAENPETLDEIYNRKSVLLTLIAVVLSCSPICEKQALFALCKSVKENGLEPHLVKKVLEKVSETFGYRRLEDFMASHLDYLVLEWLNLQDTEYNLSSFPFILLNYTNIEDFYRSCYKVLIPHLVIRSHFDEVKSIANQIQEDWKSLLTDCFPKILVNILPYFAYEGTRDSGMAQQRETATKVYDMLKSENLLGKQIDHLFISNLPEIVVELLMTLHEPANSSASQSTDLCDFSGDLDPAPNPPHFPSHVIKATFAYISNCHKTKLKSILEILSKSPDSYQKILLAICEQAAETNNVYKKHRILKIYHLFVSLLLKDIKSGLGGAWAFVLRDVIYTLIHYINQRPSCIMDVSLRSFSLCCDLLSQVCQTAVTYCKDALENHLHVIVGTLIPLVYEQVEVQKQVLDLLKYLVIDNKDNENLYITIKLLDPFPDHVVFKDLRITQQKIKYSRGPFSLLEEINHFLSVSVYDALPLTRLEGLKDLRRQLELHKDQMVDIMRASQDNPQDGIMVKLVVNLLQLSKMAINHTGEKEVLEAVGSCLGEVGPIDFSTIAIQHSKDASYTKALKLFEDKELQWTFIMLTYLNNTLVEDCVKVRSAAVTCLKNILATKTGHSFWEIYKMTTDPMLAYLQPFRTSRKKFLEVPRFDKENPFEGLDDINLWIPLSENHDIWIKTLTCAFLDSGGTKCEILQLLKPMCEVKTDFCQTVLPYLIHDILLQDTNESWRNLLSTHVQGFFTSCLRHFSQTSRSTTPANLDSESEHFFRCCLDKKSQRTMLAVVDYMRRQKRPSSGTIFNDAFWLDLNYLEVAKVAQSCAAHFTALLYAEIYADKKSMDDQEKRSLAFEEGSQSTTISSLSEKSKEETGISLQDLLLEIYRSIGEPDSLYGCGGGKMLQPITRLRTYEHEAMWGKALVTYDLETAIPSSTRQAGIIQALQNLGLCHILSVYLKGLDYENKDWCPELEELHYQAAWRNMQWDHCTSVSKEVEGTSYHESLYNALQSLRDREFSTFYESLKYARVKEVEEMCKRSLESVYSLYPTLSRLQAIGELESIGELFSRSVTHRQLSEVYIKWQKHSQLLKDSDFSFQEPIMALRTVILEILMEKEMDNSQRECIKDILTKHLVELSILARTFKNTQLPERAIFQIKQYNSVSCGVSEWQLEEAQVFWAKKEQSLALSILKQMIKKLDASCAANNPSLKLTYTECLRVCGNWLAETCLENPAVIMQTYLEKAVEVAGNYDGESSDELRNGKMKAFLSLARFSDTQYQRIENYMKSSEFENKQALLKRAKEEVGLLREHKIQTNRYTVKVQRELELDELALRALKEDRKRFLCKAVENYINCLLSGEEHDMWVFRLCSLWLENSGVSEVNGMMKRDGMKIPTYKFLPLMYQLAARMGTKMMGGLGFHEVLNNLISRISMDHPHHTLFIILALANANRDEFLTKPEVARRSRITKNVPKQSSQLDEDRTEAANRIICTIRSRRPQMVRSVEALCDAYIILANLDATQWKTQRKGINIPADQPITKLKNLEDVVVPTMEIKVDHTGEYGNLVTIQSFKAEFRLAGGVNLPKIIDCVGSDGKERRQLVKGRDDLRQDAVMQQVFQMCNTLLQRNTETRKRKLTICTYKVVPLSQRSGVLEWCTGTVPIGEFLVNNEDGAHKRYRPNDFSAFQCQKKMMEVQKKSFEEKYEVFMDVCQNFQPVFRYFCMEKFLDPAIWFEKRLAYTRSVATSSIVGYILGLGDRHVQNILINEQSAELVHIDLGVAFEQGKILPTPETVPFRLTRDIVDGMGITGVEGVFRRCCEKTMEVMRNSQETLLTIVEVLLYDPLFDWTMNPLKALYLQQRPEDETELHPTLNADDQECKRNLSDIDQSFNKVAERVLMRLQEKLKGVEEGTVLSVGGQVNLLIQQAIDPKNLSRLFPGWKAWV

Elevated plus maze test = type: in vivo, mice
Description: To evaluate whether SCID mice may also have altered anxiety, fear and depression-like traits, an elevated plus maze test was performed, which is a commonly used test to quantify the level of anxiety- and depression-like traits in rodents (Pellow et al. J. Neurosci. Methods 14: 149-67 (1985)). The elevated plus maze has narrow runways that are located 16 inches above the surface that are either closed or open. The animal is placed in the center of an elevated 4-arm maze in which 2 arms are open and 2 are enclosed. Mice generally avoid the open arms because of their fear of open space and height. The elevated plus-maze is used to determine the rodent's response to a potentially dangerous environment and anxiety-related behavior is measured by the degree to which the rodent avoids the unenclosed arms of the maze. Increase in the number of times the animal enters the open arm and the amount of time spent in the open arms reflect decreased anxiety and depression.
as §1

MCF7 cells [3] = assay: Reactive oxygen species production in MCF7 cells (CM-H2DCFDA); type: cell-based; details: NU 7026 5 μM 12 h, DNP 200 μM 10 min, Troglitazone 30 μM 4 hr, Euk-134 5 μM 3 h, MnTBAP 14 μM 3 h, FIG. 4
Description: Measurement of intracellular reactive oxygen species was based on changes in the fluorescence intensity of redox-sensitive fluorescent probes, including CM-H2DCFDA. CM-H2DCFDA is a probe for intracellular hydrogen peroxide (Jou M J et al. J. Biomed Sci 9:507 (2002)). CM-H2DCFDA rapidly diffuses into cells, reacts with intracellular glutathione and thiols, and yields a fluorescent product that is retained inside the cell (Shanker G et al. Mol Brain Res 128:48, 2004). The fluorescence intensity of CM-H2DCFDA is therefore indicative of the amount of intracellular H2O2.
Briefly, cells were incubated with 10 uM CM-H2DCFDA for 30 min at 37° C. The cells were then excited at the peak excitation wavelength for CM-H2DCFDA (485 nm) and emissions at 535 nm were measured with Wallac Victor multilable counter (Perkin Elmer). For glucose treatment, the total sugar content in the media was kept constant by supplementing with mannitol, which is not metabolized.
MCF-7 cells were obtained from ATCC and grown as recommended. Confluent MCF-7 cells were incubated with serum-free DMEM medium for 3-12 h before the experiment. MCF-7 cells were then treated with DNA-PK inhibitor NU 7026 (5 μM; Calbiochem) for 12 h, DNP (200 μM; Sigma) for 10 min, Troglitazone (30 μM) for 4 hr, Euk-134 (5 μM; Eukarion) for 3 h, MnTBAP (14 μM; Calbiochem) for 3 h and Resveratrol.

Sirt1 and PGC-1α = Sirt1 and PGC-1α expression in C2C12 myoblasts; type: cell-based
Description: Increased mitochondrial function boosts energy production and physical endurance. […] Further tests were therefore conducted to ascertain whether DNA-PKcs inhibitor elevates mitochondrial biogenesis and expression of PGC-1α and Sirt, which are important for mitochondrial biogenesis. […] It is important to note that only 2.5 μM of NU7026 was required to induce a similar level of Sirt1 to that induced by 25-50 μM Resveratrol, a well-known, potent Sirt1 activator.

O=c1cc(N2CCOCC2)oc2c1ccc1ccccc12 [NU7026, 2-(morpholin-4-yl)-benzo[h]chomen-4-one]
sensitization to topoisomerase II inhibitors (leukemic cells): sensitize leukemic cells to topoisomerase II inhibitors
sensitization to radiation in vitro [1]: sensitize mouse embryonic fibroblasts and Chinese hamster ovary cells to radiation
ATP levels (MCF7 cells [2]): without significantly affecting ATP levels
immobility in the forced swim test (Forced swim test (FST)): decreased immobility
AMPK activation (AMPK; C2C12 cells, absence of STO609, FIG. 50): activated
AMPK activation (AMPK; C2C12 cells, presence of CaMK inhibitor STO609, FIG. 50): still observed
AMPK activation (AMPK; differentiated C2C12 myoblasts, data not shown): also activated AMPK
LKB1 activation (LKB1 phosphorylation) (LKB1): caused LKB1 activation
PGC-1α expression (PGC-1α): not able to induce PGC-1α expression
IC50 (ATM): > 100 µM
levels of anxiety/depression (Elevated plus maze test; elevated plus maze and light/dark chamber tests, FIGS. 47 and 48): dramatically lower levels of anxiety/depression
time in closed arm of the elevated plus maze (Elevated plus maze test; treated vs untreated mice): less time in a closed arm
time in open arm of the elevated plus maze (Elevated plus maze test; treated vs untreated mice): more time in the open arm
Reactive oxygen species production (MCF7 cells [3]): significantly decreased
concentration required to induce a similar level of Sirt1 (Sirt1 and PGC-1α): 2.5 µM
PGC-1α and Sirt1 expression (Sirt1 and PGC-1α; FIG. 49): dramatically elevated
